Here are results for three compounds from patent US12390472B2 (SUZHOU SINOVENT PHARMACEUTICALS CO., LTD., priority 2018, dated 2025).

One data set concerns the target EZH2 (Y641N) (Homo sapiens (Human), UniProt Q15910, Y641N). The data set can be described thus: Test on EZH2 (Y641N) inhibitory activity. The format is biochemical.
Data set [1] can be described thus: In vivo pharmacokinetic properties in mice. Set-up: species or system mouse. The note with it: male ICR mice; for F: intragastric 250 mg/kg vs intravenous 5 mg/kg; for CL / AUC(0-inf) / Cmax / Tmax / half-life: single intravenous 5 mg/kg and intragastric 250 mg/kg study; for AUC(0-inf) / Cmax / Tmax / half-life: mouse, plasma; for AUC(0-inf) / Cmax / Tmax: oral; for Cmax: read-out: Cmax; for Tmax: read-out: Tmax. In a few lines:
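Male ICR mice, n=3 per group, dosed once at 5 mg/kg IV in 10% DMSO/90% (20% Captisol) or 250 mg/kg intragastrically in 0.5% CMC-Na/0.1% Tween 80 (pH 3-4). EDTA-K2 plasma sampled from 5 min to 24 h; compound levels measured by LC-MS/MS.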

For another data set, the target named is EZH2 (wt) (Homo sapiens (Human), UniProt Q15910). The data set can be described thus: Test on EZH2 (wt) inhibitory activity ([3H]-SAM Flashplate). The format is biochemical.
The target of the next data set is EZH2 (Y641F) (Homo sapiens (Human), UniProt Q15910, Y641F). Put plainly: Test on EZH2 (Y641F) inhibitory activity. The class given is biochemical.
Data set [2] relates to subcutaneous xenograft tumor model of human B lymphocyte Pfeiffer. The data set can be described thus: In vivo efficacy in subcutaneous xenograft tumor model of human B lymphocyte Pfeiffer. Also on record: species or system mouse. Particulars: SCID Beige mice, 100 mg/kg p.o. QD 21 days, tumor volume 21 days after administration. On the procedure:
Human B lymphocyte strain Pfeiffer was cultured in vitro, in a monolayer way, in a RPMI-1640 medium containing 10% fetal bovine serum, 100 U/mL penicillin and 100 μg/mL streptomycin in an incubator at 37° C./5% CO2. Conventional medium refreshment and subculturing were carried out twice a week, and cells in logarithmic growth phase were collected and used for tumor inoculation after being counted.
Female SCID Beige mice, aged 6-8 weeks and weighed 18-22 g were used in the experiment. The experiment started after 7-day adaptive feed.
Each mouse was inoculated subcutaneously with 10×10^6 Pfeiffer cells in a volume of 0.2 mL in the right side of the neck. The cells were suspended with PBS and matrigel (volume ratio 1:1). After the average tumor volume reached 130 mm^3, the mice were divided into groups with 8 mice per group for administration. The administration volume was 10 uL/g and the dose was 100 mg/kg if there's no special labeling ((p.o. administration, QD, continuous administration for 21 days).
Animal body weights were measured twice weekly and animal mortality and side effects within each group were recorded based on the number of animals in the group.
The experimental indices were to investigate whether tumor growth was inhibited or delayed or the tumor was cured. Tumor diameters were measured twice weekly using a vernier caliper. The tumor volume was calculated according to the following formula: V=0.5 a×b^2, where a and b represent the long diameter and short diameter of the tumor, respectively. The tumor growth inhibitions (TGIs) of the compounds were evaluated by T/C (%). The percentage value of T/C (%) is an index for reflecting the tumor growth inhibition, where T and C represent the average tumor volume of the administration group and the control group, respectively, at a certain day.
The tumor growth inhibition rate was calculated according to the following formula: TGI (%)=(1−(Ti−T0)/(Vi−V0))×100, where Ti is the average tumor volume of a certain administration group on a certain day, T0 is the average tumor volume of the administration group at the start of administration, Vi is the average tumor volume of the vehicle control group on a certain day (same day as Ti) and V0 is the average tumor volume of the vehicle control group at the start of administration.
Relative tumor volumes at each time point for each group were statistically analyzed and differences among groups were assessed based on the data. The statistical method used for testing was one-way ANOVA.

In a further data set the test system is Pfeiffer cells. Put plainly: Experiment on Pfeiffer cell proliferation (CellTiter-Glo). The class given is cell-based, human. Particulars: Homo sapiens. On the procedure: 90 uL of cells were added to each well of a 96-well plate at 12000 cells/well, and cell-free culture medium was added to blank control wells. The plate was incubated overnight in an incubator at 37° C., 5% CO2 and 100% relative humidity. The compounds were diluted from highest to lowest concentration gradient with DMSO to make stock solutions at 400-fold and 10-fold concentration. 10 μL of 10× compound working solution was added to the cell culture plate, and the total concentration of the compound was detected from 10 μM, 9 concentration points in total, and 3-fold serial dilution was performed. 10 μL of DMSO-cell culture medium mixture solution was added to the vehicle control wells and blank control wells. The final concentration of DMSO was 0.25%. The plate was put back in the incubator for another 7 days of culturing.
The cell culture plate cultured for 7 days was taken out of the incubator, and the suspended cells in the 96-well plate were mixed well by pipetting multiple times. 74 uL of fresh cell culture medium was added to a new 96-well plate, and 16 uL of cell suspension was pipetted from the 96-well plate with cells mixed well by pipetting into the new 96-well plate to bring the total volume to 90 uL. Cells in the new 96-well plate were treated with the compound. The new 96-well plate was put back in the incubator for another 7 days of culturing, and then cell viability was detected directly.
84 μL of cell suspension was taken from the cell culture plate for cell viability detection.
CellTiter-Glo buffer and substrate were thawed and balanced to room temperature. The CellTiter-Glo buffer was added to a bottle of CellTiter-Glo substrate to dissolve the substrate, thereby preparing CellTiter-Glo working solution. The bottle was subjected to slow vortex shaking to completely dissolve the substrate. The cell culture plate was taken out and balanced to room temperature for 30 min. 50 μL of CellTiter-Glo working solution was added to each well. The cell plate was wrapped with aluminum foil to keep out of light. The plate was shaken on an orbital shaker for 2 min to induce cell lysis. The plate was placed at room temperature for 10 min to stabilize the luminescence signals. The luminescence signals were detected on 2104 En Vision plate reader.
Inhibition rates of compounds at different concentrations were calculated in Excel, followed by plotting the inhibition curves and calculating relevant parameters including minimum (%), maximum (%), and absolute IC50 using GraphPad Prism software.
In general terms: In ATP-based viability assays light output follows the ATP content of the culture.

The test system of the next data set is WSU-DLCL2 cells. Put plainly: Experiment on WSU-DLCL2 cell proliferation (Calcein-AM). The note with it: Homo sapiens. The class given is cell-based. On the procedure: WSU-DLCL2 cells were plated in a 96-well plate and 100 uL of cells (a density of 1×10^5 cells/mL) and 50 uL of compound stock at 3-fold concentration was added to each well, and the final volume was 150 uL/well. After 6 days of culturing, on day 7, the cells in the well plate were mixed well by pipetting, and 50 uL of the cell suspension was pipetted to be tested for cell viability using Calcein-AM. 50 uL of the cell suspension was added to a 96-well plate coated by poly-D-Lysine, and then 50 uL of HBSS containing 2 uM Calcein-AM was added to make the final concentration of Calcein-AM 1 uM. After incubation for 10 min at room temperature, the cells were rapidly centrifuged to be deposited on the bottom of the plate. The cells were cultured in the incubator for another 40 min and then the plate was read on Acumen.
The remaining cells were diluted and then plated in a 96-well plate, and 100 uL of cells and 50 uL of a compound at 3-fold concentration were added to each well for further culturing until day 14, and the cell viability was detected as described above. The IC50 was calculated.

Where two headings read alike, the source gives them in different places.

EZH2 (wt), sequence (Q15910 whole entry): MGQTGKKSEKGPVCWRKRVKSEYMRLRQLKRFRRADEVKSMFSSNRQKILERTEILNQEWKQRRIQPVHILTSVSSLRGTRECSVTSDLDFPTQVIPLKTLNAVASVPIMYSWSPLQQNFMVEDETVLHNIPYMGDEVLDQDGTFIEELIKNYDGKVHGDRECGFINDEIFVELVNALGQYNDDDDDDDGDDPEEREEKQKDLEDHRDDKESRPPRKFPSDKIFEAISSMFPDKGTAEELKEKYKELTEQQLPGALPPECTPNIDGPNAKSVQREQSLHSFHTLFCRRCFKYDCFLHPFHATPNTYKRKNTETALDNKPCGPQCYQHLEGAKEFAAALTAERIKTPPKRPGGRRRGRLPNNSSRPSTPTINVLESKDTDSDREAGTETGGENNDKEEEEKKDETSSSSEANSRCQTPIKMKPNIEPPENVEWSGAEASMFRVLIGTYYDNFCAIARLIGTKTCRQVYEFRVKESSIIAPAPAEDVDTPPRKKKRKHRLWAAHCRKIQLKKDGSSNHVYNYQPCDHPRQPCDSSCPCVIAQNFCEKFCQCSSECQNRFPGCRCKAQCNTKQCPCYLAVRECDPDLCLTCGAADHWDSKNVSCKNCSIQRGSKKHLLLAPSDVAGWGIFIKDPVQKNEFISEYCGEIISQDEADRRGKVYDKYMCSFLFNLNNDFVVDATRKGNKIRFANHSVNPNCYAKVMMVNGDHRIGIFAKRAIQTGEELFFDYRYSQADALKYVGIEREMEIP
EZH2 (wt), sequence (O75530 whole entry partner): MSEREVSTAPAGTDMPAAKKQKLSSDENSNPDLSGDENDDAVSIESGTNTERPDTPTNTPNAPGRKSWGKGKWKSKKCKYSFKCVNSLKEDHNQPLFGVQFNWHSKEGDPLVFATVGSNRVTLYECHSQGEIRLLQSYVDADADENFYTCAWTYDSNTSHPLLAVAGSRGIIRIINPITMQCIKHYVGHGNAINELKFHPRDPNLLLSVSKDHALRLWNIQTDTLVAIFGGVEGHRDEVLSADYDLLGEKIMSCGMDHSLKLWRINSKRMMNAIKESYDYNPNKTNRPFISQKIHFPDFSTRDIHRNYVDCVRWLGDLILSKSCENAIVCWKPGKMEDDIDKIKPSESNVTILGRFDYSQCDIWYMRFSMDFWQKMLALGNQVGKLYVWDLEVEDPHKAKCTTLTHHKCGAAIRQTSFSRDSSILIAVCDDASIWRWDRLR
EZH2 (wt), sequence (Q15022 whole entry partner): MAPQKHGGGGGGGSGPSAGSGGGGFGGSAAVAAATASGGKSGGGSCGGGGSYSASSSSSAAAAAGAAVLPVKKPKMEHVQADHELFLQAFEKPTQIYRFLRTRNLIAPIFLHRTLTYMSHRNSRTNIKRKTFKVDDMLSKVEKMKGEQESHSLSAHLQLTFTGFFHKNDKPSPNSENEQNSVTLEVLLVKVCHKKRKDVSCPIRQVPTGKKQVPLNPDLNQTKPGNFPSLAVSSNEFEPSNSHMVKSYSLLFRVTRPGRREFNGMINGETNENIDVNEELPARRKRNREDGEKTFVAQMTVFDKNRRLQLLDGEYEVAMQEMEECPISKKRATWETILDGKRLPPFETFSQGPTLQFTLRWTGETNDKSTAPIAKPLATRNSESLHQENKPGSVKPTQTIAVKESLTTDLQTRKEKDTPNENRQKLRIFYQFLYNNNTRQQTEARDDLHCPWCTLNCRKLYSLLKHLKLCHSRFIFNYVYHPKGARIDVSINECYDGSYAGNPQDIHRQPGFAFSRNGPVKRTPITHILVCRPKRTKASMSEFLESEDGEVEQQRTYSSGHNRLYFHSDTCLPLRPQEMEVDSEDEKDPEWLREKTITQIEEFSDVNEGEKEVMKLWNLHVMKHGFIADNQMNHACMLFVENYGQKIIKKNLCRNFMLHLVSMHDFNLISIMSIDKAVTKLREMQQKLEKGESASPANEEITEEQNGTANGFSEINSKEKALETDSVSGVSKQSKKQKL
EZH2 (Y641N), sequence (Q15910 whole entry Y641N): as the sequence (Q15910 whole entry) above, with Y641N counted along it
EZH2 (Y641N), sequence (O75530 whole entry partner): as the sequence (O75530 whole entry partner) above
EZH2 (Y641N), sequence (Q15022 whole entry partner): as the sequence (Q15022 whole entry partner) above
EZH2 (Y641F), sequence (Q15910 whole entry Y641F): as the sequence (Q15910 whole entry) above, with Y641F counted along it
EZH2 (Y641F), sequence (O75530 whole entry partner): as the sequence (O75530 whole entry partner) above
EZH2 (Y641F), sequence (Q15022 whole entry partner): as the sequence (Q15022 whole entry partner) above

On to `CCN(c1cc(O[C@H]2C[C@H](N3CCCCC3)C2)cc(C(=O)NCc2c(OC)cc(C)[nH]c2=O)c1C)C1CCOCC1` [Example 93, 3-(ethyl(tetrahydro-2H-pyran-4-yl)amino)-N-((4-methoxy-6-methyl-2-oxo-1,2-dihydropyridin-3-yl)methyl)-2-methyl-5-(trans-3-(piperidin-1-yl)cyclobutoxy)benzamide], for which, at EZH2 (Y641N), the IC50 is < 0.51 nM. In data set [1], the F was found to be 23.1%; the CL came to 45.17 ± 4.21 mL/min/lg; the AUC(0-inf) (commonly total exposure, with the tail of the curve extrapolated) was 21500 ± 2110 ng·h/mL; the Cmax (usually the maximum level reached in the sampled fluid or tissue) was 10700 ± 4120 ng/mL. Besides, in data set [1], the Tmax – broadly, the time at which the peak concentration occurs – was found to be 0.33 ± 0.14 h and the half-life (in general, how long it takes for the measured level to halve) was 1.3 ± 0.64 h. In addition, the IC50 on EZH2 (wt) is < 0.51 nM. The IC50 against EZH2 (Y641F) is < 0.51 nM.

Consider `CCN(c1cc(O[C@H]2C[C@H](N3C[C@@H](C)O[C@@H](C)C3)C2)cc(C(=O)NCc2c(OC)cc(C)[nH]c2=O)c1C)C1CCC(F)(F)CC1` [Example 87, 3-((4,4-difluorocyclohexyl)(ethyl)amino)-5-(trans-3-(cis-2,6-dimethylmorpholino)cyclobutoxy)-N-((4-methoxy-6-methyl-2-oxo-1,2-dihydropyridin-3-yl)methyl)-2-methylbenzamide], for which, in data set [2], the TGI (usually how far tumour growth fell short of that in controls) came to 42.84%. Moreover, the IC50 at EZH2 (Y641N) was 2.6 nM; with Pfeiffer cells (168 h, Day 7, read-out: IC50 Pfeiffer proliferation Day 7), 20 nM; in the data set on Pfeiffer cells (336 h, Day 14, read-out: IC50 Pfeiffer proliferation Day 14) it was 4.3 nM; in the data set with WSU-DLCL2 cells (WSUDLCL2, 168 h, WSU-DLCL2, Day 7, read-out: IC50 WSU-DLCL2 proliferation Day 7), 40 nM; in the data set on WSU-DLCL2 cells (WSUDLCL2, 336 h, WSU-DLCL2, Day 14, read-out: IC50 WSU-DLCL2 proliferation Day 14), 9 nM; at EZH2 (wt), 1.2 nM. On EZH2 (Y641F), this compound registered an IC50 of 5.5 nM. The compound further yielded a F in data set [1] of 35.4%. Also, in data set [1], the CL came to 31.0 ± 2.82 mL/min/lg. In addition, the AUC(0-inf) in data set [1] came to 47800 ng·h/mL. For the same compound, the Cmax in data set [1] was 10600 ± 4150 ng/mL. Moreover, in data set [1], the Tmax was found to be 0.83 ± 0.29 h. Also, in data set [1], the half-life was 5.77 ± 1.51 h.

In turn, `CCN(c1cc(O[C@H]2C[C@H](N3C[C@@H](C)O[C@@H](C)C3)C2)cc(C(=O)NCc2c(OC)cc(C)[nH]c2=O)c1C)C1CC2CCC(C1)O2` (stereo partly drawn) [Example 88, 3-((8-oxabicyclo[3.2.1]octan-3-yl)(ethyl)amino)-5-(trans-3-(cis-2,6-dimethylmorpholinyl)cyclobutoxy)-N-((4-methoxy-6-methyl-2-oxo-1,2-dihydropyridin-3-yl)methyl)-2-methylbenzamide] yielded a TGI in data set [2] of 32.83%. The IC50 against EZH2 (Y641N) was 2 nM. For the same compound, in data set [1], the F came to 33.4%, the CL is 60.4 ± 0.15 mL/min/lg, the AUC(0-inf) was 23000 ± 4540 ng·h/mL and the Cmax was 10200 ± 1450 ng/mL. In data set [1], the Tmax is 0.5 h and the half-life was 2.26 ± 0.87 h. In addition, the IC50 against EZH2 (wt) was 1.1 nM. Moreover, the IC50 against EZH2 (Y641F) was found to be 3.3 nM.
